Experimental data published in US5661154A (priority 1988, dated 1997).
Entries after “also recorded” stand apart in the source; their conditions may differ. Read-outs that look alike come from different tables or passages of the source.

How the values were obtained:
serum uric acid = experiment: Uric acid decreasing effect in test persons with hyperuricaemia; type: in vivo; details: for decrease of the serum uric acid level: daily 384 mg sodium oxypurinol or 300 mg allopurinol, two weeks; for decrease of the serum uric acid level (in words): sodium oxypurinol compared with allopurinol
xanthine oxidase = details: cited from earlier work; for inhibiting the enzyme xanthine oxidase: allopurinol and oxypurinol compared with each other
[1] = portion of allopurinol; cited from earlier work
[2] = cited from earlier work
[3] = pH value of aqueous solution; type: physicochemical; details: 5% aqueous solution
Excerpt: However, from the examples it can be seen that not the pure sodium salt was used, but a mixture of salt and excess sodium hydroxide solution. This follows especially from the pH values of about 1 to 2% solutions, being 11.5 or 12.0. The sodium salt having been prepared by the applicant in pure and crystalline form for the first time has a pH value of 9.7 in 5% aqueous solution, and crystallizes as the monohydrate.
(§1) Said sodium salt is monosodium oxypurinol monohydrate. The salt is white and crystallizes in fine needles.

[4] = Stability of the salt on air and on drying; type: physicochemical
Description: The salt is stable on air and endures drying temperatures up to about 70° C.

Solubility = type: physicochemical; details: methanol/water 3:1, organic solvent or mixture; 25° C.; read-out: solubility in methanol/water (3:1 by vol.)
Excerpt: as §1

SMILES | decrease of the serum uric acid level (serum uric acid) [mg/100 ml] | decrease of the serum uric acid level (in words) (serum uric acid) | inhibiting the enzyme xanthine oxidase (xanthine oxidase) | activity of allopurinol itself (xanthine oxidase; therapeutic effect only after metabolizing to oxypurinol) | excreted via kidneys [1] [%] | resorbable upon peroral application ([2]; in vivo) | resorbable upon peroral application ([2]; from galenic formulations, per os) | decrease of the serum uric acid level (in words) (serum uric acid; monohydrate) | pH value [3] | endures drying temperatures up to ([4]; drying) | stability on air ([4]; on air) | solubility (Solubility) [µg/mL]
Oc1ncnc2[nH]ncc12 [allopurinol] | 2.0 | comparable; also recorded: approximately equal decrease | equally strongly | little activity itself | 3 to 10 | well resorbable |  |  |  |  |  | 
Oc1nc(O)c2cn[nH]c2n1 [oxypurinol, 4,6-dihydroxypyrazolo[3,4-d]pyrimidine] |  |  | equally strongly |  |  |  | no success was achieved in finding a galenic formulation being sufficiently resorbable per os |  |  |  |  | 
Oc1nc(O)c2cn[nH]c2n1 [sodium oxypurinol, monosodium oxypurinol monohydrate] | 2.1 |  |  |  |  |  |  | comparable; also recorded: approximately equal decrease | 9.7 | about 70 °C | stable on air | ~2000
